Patent publication US7056506B2, “Methods for detecting and inhibiting angiogenesis” (The Regents of the University of California, priority 1998, dated 2006)

B1: vitronectin: vitronectin, extracellular matrix protein applied to CAM's (protein)
chain: DQESCKGRCTEGFNVDKKCQCDELCSYYQSCCTDYTAECKPQVTRGDVFTMPEDEYTVYDDGEEKNNATVHEQVGGPSLTSDLQAQSKGNPEQTPVLKPEEEAPAPEVGASKPEGIDSRPETLHPGRPQPPAEEELCSGKPFDAFTDLKNGSLFAFRGQYCYELDEKAVRPGYPKLIRDVWGIEGPIDAAFTRINCQGKTYLFKGSQYWRFEDGVLDPDYPRNISDGFDGIPDNVDAALALPAHSYSGRERVYFFKGKQYWEYQFQHQPSQEECEGSSLSAVFEHFAMMQRDSWEDIFELLFWGRTSAGTRQPQFISRDWHGVPGQVDAAMAGRIYISGMAPRPSLAKKQRFRHRNRKGYRSQRGHSRGRNQNSRRPSRATWLSLFSSEESNLGANNYDDYRMDWLVPATCEPIQSVFFFSGDKYYRVNLRTRRVDTVDPPYPRSIAQYWLGCPAPGHL

Legend:
[1] = test system: HT29 colon carcinoma cells lacking α5β1 expression; test: Chick CAM tumor assay, HT29; format: in vivo; details: HT29 tumors on CAM
Protocol: The chick CAM tumor assay was performed by placing ten million tumor cells on the surface of a CAM, and culturing the cells for one week. The resulting tumors were excised and cut into 50 mg fragments. […] Forty-eight hours later, CAM's were excised from the egg and the number of blood vessels entering the tumors were counted (as vessel branch points).
Data was presented as mean blood vessel number per treatment group (+/− standard error of measurement). Each treatment group incorporated at least ten tumors per experiment. Representative tumors were photographed at 10× magnification. Tumors were excised from the egg and tumor weights were determined for each tumor Data was presented as mean tumor weight per treatment group (+/− standard error of measurement). Statistical analyses were performed using Student's t-test.
HT29 colon carcinoma cells lacking α5β1 expression were grown on the CAM's of 10-day old embryos. These tumor cells secrete several angiogenic growth factors, including VEGF, TGFα, TGFβ, TNFα, and IL-8 (Anzano et al., Cancer Res. 49:2898–2904 (1989); Varner et. al., supra, 1995; Ellis et al., J. Biol. Chem. 273:1052–1057 (1998)). Integrin α5β1 negative tumor cells were used to distinguish the potential anti-tumor effects from anti-vasculature effects of integrin α5β1 antagonists.

[2] = test system: chick embryo fibroblasts (CEF's); test: Cell adhesion assay, adhesion to fibronectin; format: cell-based
Excerpt: (§1) HT29 integrin α5β1^+ cells, integrin α5β1^− colon carcinoma cells (Varner et al., Mol. Biol. Cell 6:725–740 (1995)), and chick embryo fibroblasts (CEF's) were maintained in DMEM high glucose supplemented with 10% fetal bovine serum (FBS) and gentamycin. Human umbilical vein endothelial cells (HUVEC's) were maintained in M199 medium containing sodium bicarbonate, HEPES, heparin, endothelial cell growth supplement, 20% FBS and gentamycin. Culture media and reagents were from Irvine Scientific (Irvine, Calif.).
(§2) The wells of 48 well culture dishes (Costar, Inc.) were coated with 1 μg/ml vitronectin, 2 μg/ml fibronectin (chick embryo fibroblasts and HUVEC's) or 10 μg/ml fibronectin (HT29-α5^+ cells) for 1 hr at 37° C., then blocked with 2% heat denatured BSA in PBS for 1 hr. Fifty thousand cells in 250 μl of adhesion buffer were added to triplicate wells containing 250 μl of a solution of 50 μg/ml of an anti-α5β1 function blocking antibody (NKI-SAM-1, JBS5 or IIA1), 50 μg/ml of an anti-α5β1 non-function blocking antibody (HA5 or VC5; Pharmingen, Inc.; San Diego Calif.), 10 μM cyclic peptides (Koivunen et al., J. Biol. Chem. 268:20205–20210 (1993); Koivunen et al., J. Cell Biol. 124:373380 (1994)), 0–10 μM SJ749 ((S)-2-{(2,4,6-trimethylphenyl)sulfonyl}amino-3{7-benzyloxycarbonyl-8-(2-pyridinylaminomethyl)-1-oxa-2,7-diazaspiro-{4,4}-non-2-en-3-yl}carbonylamino}propionic acid)), 50 μg/ml of LM609, an anti-αVβ3 function blocking antibody, 50 μg/ml P4C10, an anti-β1 function blocking antibody, 50 μg/ml of an anti-fibronectin cell binding domain monoclonal antibody or 50 μg/ml of an anti-fibronectin N-terminus monoclonal antibody in adhesion buffer (HEPES buffered Hanks balanced salt solution, HBSS, containing 1% BSA, 2 mM MgCl2, 2 mM CaCl2 and 0.2 mM MnCl2).
(§3) Cells were allowed to adhere to dishes for 20 min at 37° C. Nonadherent cells were removed by washing each well four times with 500 μl of warm adhesion buffer. Adherent cells were then fixed for 15 min with 3.7% paraformaldehyde in PBS and stained with a 2% crystal violet solution. After extensive water washing to remove excess crystal violet, plates were dried overnight. Crystal violet was extracted by incubation for 15 min in 10% acetic acid and absorbance at 562 nm determined as an indicator of number of cells bound. Each experiment was performed in triplicate, with triplicate samples per condition.

[3] = test system: Human umbilical vein endothelial cells (HUVEC's); test: Cell adhesion assay, adhesion to fibronectin; format: cell-based
Excerpt: as §1, §2, §3

[4] = test system: α5^+ HT29 cells; test: Cell adhesion assay, adhesion to fibronectin; format: cell-based, human
Excerpt: as §1, §2
Cells were allowed to adhere to dishes for 20 min at 37° C. Nonadherent cells were removed by washing each well four times with 500 μl of warm adhesion buffer. […] Crystal violet was extracted by incubation for 15 min in 10% acetic acid and absorbance at 562 nm determined as an indicator of number of cells bound. […]

[5] = test system: HUVEC's; test: Cell migration assay on fibronectin; format: cell-based, human
Protocol: The lower side of 8 μm pore transwell inserts (Costar, Inc.) were coated with 2 μg/ml of fibronectin, collagen (Collaborative Biomedical Products; Bedford Mass.) or no protein for 1 hr and were blocked with 2% BSA in PBS for 1 hr. The inserts then were placed into 24 well culture dishes containing 500 μl migration buffer in the lower chamber. Twenty-five thousand HUVEC's in 50 μl of migration buffer (HEPES buffered M199 medium containing 1% BSA, 2 mM MgCl2, 2 mM CaCl2 and 0.2 mM MnCl2) were added to the upper chamber of duplicate inserts containing 50 μl of a solution of 50 μg/ml of anti-α5β1 function blocking antibody (NKI-SAM-1, JBS5 or IIA1), 50 μg/ml of anti-α5β1 non-function blocking antibody (HA5 or VC5), or 50 μg/ml of LM609 (an anti-αVβ3 function blocking antibody) in migration buffer, or migration buffer alone.
Cells were allowed to migrate from the upper to the lower chamber for 4 hr at 37° C. Nonmigratory cells were removed from the upper surface by wiping the upper side with an absorbant tip, and cells that had migrated to the lower side of the transwell insert were fixed for 15 min with 3.7% paraformaldehyde in PBS, then stained with a 2% crystal violet solution. After extensive water washing to remove excess crystal violet, the number of cells that had migrated were counted in three representative high power (200×) fields per insert. […]

[6] = test system: VEGF-induced angiogenesis on the chick CAM; test: In ovo chick CAM angiogenesis assay, VEGF stimulated; format: in vivo; details: for effect of applied matrix protein on the angiogenic effect of VEGF: matrix protein applied to VEGF stimulated CAM's
Excerpt: (§4) Ten day old embryonated chicken eggs (McIntyre Poultry; Ramona Calif.) were candled to illuminate blood vessels under the shell and an area with a minimum of small blood vessels is identified. The CAM was dropped away from the eggshell in this area by grinding a small hole in the mineralized shell and applying pressure to the underlying inner shell membrane. This procedure caused an air pocket to shift from the wide end of the egg to the identified area and forcing a circular region of the CAM approximately 2 cm in diameter to drop away from the shell. A window was cut in the egg shell and a cortisone acetate pre-treated filter disc 5 mm in diameter that had been saturated in 1 μg/ml bFGF, VEGF, TNFα, IL-8 (Genzyme, Inc.; Cambridge Mass.) or saline was placed on the CAM. The window in the shell was sealed with adhesive tape and the egg was incubated for four days.
(§5) Anti-fibronectin antibodies (25 μg in 25 μl) also were applied topically to the CAM.
(§6) Fibronectin, vitronectin and fibronectin fragments (59 pmol in a final volume of 25 μl) were applied to stimulated or unstimulated CAM's. Peptide or small molecule antagonists of α5β1 (at a final serum concentration of 0–25 μM) also were injected intravenously into the chick circulation 24 hr later. CAM's were harvested on the fourth day of stimulation. Blood vessel branch points in the 5 mm filter disk area were counted at 30× magnification in a blinded fashion as a size-independent quantitative indicator of vascular sprouting in response to growth factors. Angiogenesis is characterized by the sprouting of new vessels in response to growth factors. Thus, counting of blood vessel branch points is a useful quantitative means of obtaining an angiogenic index (Brooks et al., In “Methods in Molecular Biology” (Humana Press 1999). At least ten embryos were used per treatment group. Each experiment was performed a minimum of three times.
(§7) Data was evaluated in terms of average number of blood vessel branch points per treatment group +/−standard error of measurement . Statistical analyses were performed using Student's t-test. Representative CAMS from each treatment group were photographed at 10X magnification. In some cases, CAM tissue excised from the egg was frozen in OCT (Baxter; McGraw Park Ill.) in liquid nitrogen, cut into 5 μm sections, air dried and processed for immunohistochemical analysis as described in Example I, except without fixation.

[7] = test system: growth factor-induced angiogenesis in chick embryos; test: Chick CAM angiogenesis assay, systemic administration, growth factor not specified; format: in vivo; details: chick embryo, read-out: amount inhibiting angiogenesis by 50% (converted)
Excerpt: (§8) Ten day old embryonated chicken eggs (McIntyre Poultry; Ramona Calif.) were candled to illuminate blood vessels under the shell and an area with a minimum of small blood vessels is identified. The CAM was dropped away from the eggshell in this area by grinding a small hole in the mineralized shell and applying pressure to the underlying inner shell membrane. This procedure caused an air pocket to shift from the wide end of the egg to the identified area and forcing a circular region of the CAM approximately 2 cm in diameter to drop away from the shell. […]
(§9) Fibronectin, vitronectin and fibronectin fragments (59 pmol in a final volume of 25 μl) were applied to stimulated or unstimulated CAM's. […] Blood vessel branch points in the 5 mm filter disk area were counted at 30× magnification in a blinded fashion as a size-independent quantitative indicator of vascular sprouting in response to growth factors. […] Thus, counting of blood vessel branch points is a useful quantitative means of obtaining an angiogenic index (Brooks et al., In “Methods in Molecular Biology” (Humana Press 1999). At least ten embryos were used per treatment group. Each experiment was performed a minimum of three times.
(§10) Data was evaluated in terms of average number of blood vessel branch points per treatment group +/−standard error of measurement . […]

[8] = test system: bFGF-induced angiogenesis on the chick CAM; test: In ovo chick CAM angiogenesis assay, bFGF stimulated; format: in vivo
Excerpt: as §4, §5, §6, §7

[9] = test system: blood vessels of unstimulated CAM's; test: In ovo chick CAM angiogenesis assay, unstimulated CAM's; format: in vivo; details: absence of growth factor
Excerpt: as §8, §9, §10

[10] = matrix protein applied to bFGF stimulated CAM's

| Molecule | effect on tumor size [1] | tumors smaller than control treated tumors [1] [%] | effect on adhesion to fibronectin [2] | effect on adhesion to fibronectin [3] | effect on adhesion to fibronectin [4] | effect on endothelial cell migration on fibronectin [5] | effect on VEGF angiogenesis ([6]; VEGF stimulated CAM) | IC50 [7] [nM] | inhibition of bFGF-induced angiogenesis (blood vessel branch points) ([8]; bFGF stimulated CAM) | effect on blood vessels / angiogenesis of unstimulated CAM's [9] | effect of applied matrix protein on the angiogenic effect of VEGF [6] | enhancement of growth factor stimulated angiogenesis [8, 10] | effect of applied matrix protein on bFGF stimulated angiogenesis [8, 10] |
| --- | --- | --- | --- | --- | --- | --- | --- | --- | --- | --- | --- | --- | --- |
| CRRETAWAC | induced tumor regression | 31 | significantly inhibited | significantly inhibited | significantly inhibited | interfered | failed to block | 60 | 90+/−6% |  |  |  |  |
| fibronectin: intact human fibronectin |  |  |  |  |  |  |  |  |  | neither fibronectin nor vitronectin promoted angiogenesis | did not potentiate | at least 46+/−11% |  |
| B1 |  |  |  |  |  |  |  |  |  | neither fibronectin nor vitronectin promoted angiogenesis | did not potentiate |  | no effect |
